Experiment: Human HepG2 cell viability assay in 384 well format
Assay type: toxicity, cell-based
Set-up: dose 125 nL, time 70.5 hour; cytotoxicity at 70.5 h: concentration not given beside the values
Conditions: HepG2 cells, read-out: Inhibition

Row | SMILES | cytotoxicity at 70.5 h [%]
1 | COc1cccc(CN(C)C(C)c2nccs2)c1OCCn1ccnc1 (stereo not given) | -3.88
2 | Cc1cccc2ncn(C(C)Cn3cccn3)c(=O)c12 (stereo not given) | -10.4
3 | CN1CCN([C@@H]2CCN(Cc3cccc(-n4cccn4)c3)C[C@H]2O)CC1 | 2.97
4 | CCCc1cc(N2CCC(NC3CCOCC3)CC2)nc(C)n1 | 22.8
5 | COc1ccc(N2CCN(Cc3noc(CC(C)C)n3)C(C)C2=O)cc1 (stereo not given) | -24.6
6 | NC(=O)c1cc2c(nc1Oc1ccc(CN3CCCC3)cc1F)CCC2 | -10.9
7 | COc1c(F)cc(-c2cn(CCn3c(C)cc(C)nc3=O)nn2)cc1Cl | -2.6
8 | Cc1cccnc1CN1CCN(C(=O)CCn2ccc(=O)[nH]c2=O)CC1 | -9.8
9 | COCCN1CCC2(CC1)CC(c1ccccc1)C(=O)N2C (stereo not given) | -7.45
10 | Cc1nccn1CC1CCCN(C(=O)Cc2ccsc2)C1 (stereo not given) | -17.7
11 | COCCN1CC2(CCCN(Cc3cc(=O)c(OC)co3)C2)CCC1=O (stereo not given) | -8.24
12 | CCc1nc(N2CCCN(c3ncccn3)CC2)c2cnn(C)c2n1 | -7.44
13 | Cn1cc(-c2ccnc(NCC3CC3)n2)cn1 | -10.3
14 | O=C(O)C1(O)CCN(c2ccc3cccc(Cl)c3n2)CC1 | -20.3
15 | CCCOC(C)Cn1ccc2[nH]c(=O)c(C#N)cc2c1=O (stereo not given) | 10.5
16 | CC(=O)Nc1ccc(-c2ccccc2CCN)cc1 | -4.46
17 | CCNC(=O)[C@@H]1C[C@@H](N)CN1C(=O)Cc1cc(C)ccc1C | -8.37
18 | CCc1nc(C)sc1CN1CC[C@@](O)(C2CC2)[C@H](C)C1 | -7.56
19 | O=C1CC[C@H]2CN(C3CCOCC3)CC[C@H]2N1CCC1=CCCCC1 | 2.84
20 | Cc1nc2c(c(NCc3ccccc3)n1)CCN(C(=O)C1CCC1)CC2 | -6.11
21 | CN(C)c1nc(NCc2ccccc2Cn2cccn2)ncc1F | 5.75
22 | Cc1ccc([C@H]2CN(C(=O)CC3CCC3)C[C@@H]2N)o1 | 0.0304
23 | CCS(=O)(=O)N1CCC(c2nnc(CN3CCCCC3)n2C)CC1 | -3.65
24 | NCC1Cc2cc(-c3cncc(C(=O)N4CCOCC4)n3)cc(Cl)c2O1 (stereo not given) | -4.26
25 | Cn1cccc1C(=O)N1C[C@H]2CC[C@@H]1CN(Cc1cscn1)C2 | 1.29
26 | CCCc1cc(CNC2CCN(c3cc(C)nc(N)n3)CC2)on1 | -5.61
27 | O=C(C1CCCO1)N1CCC(n2cc(-c3ccsc3)nn2)CC1 (stereo not given) | -13.3
28 | Cc1nn(C)c(C)c1CCC(=O)N1CCCOC(Cn2cccn2)C1 (stereo not given) | -2.69

Row | SMILES | cytotoxicity at 70.5 h [%]
29 | O=C1CCCCN1Cc1cccc(OC(F)F)c1 | 4.41
30 | CC(=O)NCC(=O)N1CCC(C2CCN(Cc3ccc(Cl)cc3)C2)CC1 (stereo not given) | -2.13
31 | Cc1ncsc1CCCn1ccnc1-c1cc2n(n1)CCCNC2 | -9.03
32 | O=C(CCc1cn[nH]c1)N1CCC(C2CCN(c3ncccn3)CC2)C1 (stereo not given) | 0.44
33 | Cc1c[nH]c(CN(C)C(=O)[C@]23CNC[C@H]2CNC3)n1 | -4.74
34 | C1Cc2nc(CCNc3nc(C4CC4)nc4c3CCNCC4)sc2C1 | -4.01
35 | Cc1cc(C)n(CCNC(=O)c2ncc[nH]2)c(=O)n1 | -3.22
36 | COc1cccc(Cc2nc3c([nH]2)CC(C)(C)CNC3=O)c1OC | -1.08
37 | CC(COc1ccccc1)NCc1cn2ccccc2n1 (stereo not given) | -4.87
38 | COc1ccnc(N2C[C@@H](NS(=O)(=O)N(C)C)[C@H](C(C)C)C2)n1 | 9.46
39 | COCCN(C)C[C@@H]1CN(c2nnc(C(C)C)s2)C[C@@H]1CO | -9.43
40 | CN(Cc1cc(C(C)(C)C)n[nH]1)C(=O)c1ccc2nccn2c1 | -2.34
41 | Cc1cc2nc(C(C)C)cc(NCC(c3ccccn3)N(C)C)n2n1 (stereo not given) | 3.67
42 | CCN(Cc1cc(F)ccc1Cl)C1CCS(=O)(=O)C1 (stereo not given) | 29.9
43 | COc1ccc(CC2(CO)CCN(c3cc(N)ncn3)CC2)cc1 | -6.39
44 | Nc1nc2c(c(N3CCSCC3)n1)CCN(Cc1ccccn1)CC2 | -2.53
45 | CNC(=O)c1[nH]nc2c1CN(c1cc(C3CCCNC3)nc(C)n1)CC2 (stereo not given) | -10.6
46 | CCc1noc(C)c1-c1nc(Cc2cccs2)nn1C1CCN(C)CC1 | -1.49
47 | CN(C)C(=O)N1CCN(Cc2nc3ccccc3[nH]2)[C@H]2CS(=O)(=O)C[C@H]21 | 25
48 | Cc1ccc(C(=O)O)cc1-c1cccc(C(C)N(C)C)c1 (stereo not given) | -2.39
49 | CC(C)COc1cccc(-c2nc3c([nH]2)CCNC3)c1 | 3.41
50 | O=C(O)C(c1ccc2c(c1)OCCO2)N1CCCC1 (stereo not given) | -3.29
51 | CN(CC1(CO)CCCC1)C(=O)c1cc(COc2ccccc2F)[nH]n1 | -6.26
52 | Cc1ncccc1OC1(C(=O)NCCC2CCCN2C)CCNCC1 (stereo not given) | 13.7
53 | CN(C)C(=O)N1C[C@@H]2CC[C@H](C1)N(C/C=C/c1ccc(F)cc1)C2 | -9.21
54 | O=C(O)CC[C@@H]1CN(c2ccncc2)CC[C@@H]1N1CCOCC1 | -3.32
55 | CCN(CC)C(=O)[C@@H]1C[C@H](n2cc(-c3ccccn3)nn2)CN1 | 12

Source: ChEMBL document CHEMBL3507680, “University of Dundee, Gates Library screen for HepG2 cell viability”
